From ChEMBL document CHEMBL6127049, “Discovery of the selective and nanomolar inhibitor of DPP-4 more potent than sitagliptin by structure-guided rational design” (Eur J Med Chem, 2024)
The source made the active and inactive calls. The calls are words filed in the database; no cut-off is given here.

Columns and labels:
Dipeptidyl peptidase 9 = Dipeptidyl peptidase 9 (Homo sapiens, UniProt Q86TI2); experiment: Inhibition of DPP9 (unknown origin) assessed as hydrolysis rate using Gly-pro-p-nitroanilide as substrate measured after 20 mins incubation by […] assay
Rattus norvegicus [1] = experiment: Anti-diabetic activity in normal Wistar rat model assessed as blood glucose level at 10 mg/kg, po followed by treated administered 3 mg/kg orally measured after 120 mins by Oral glucose tolerance test (reference value: 126.5 + /- 3.90 mg/dL); assay type: functional; conditions: 2 h
Dipeptidyl peptidase 8 = Dipeptidyl peptidase 8 (Homo sapiens, UniProt Q6V1X1); experiment: Inhibition of DPP8 (unknown origin) assessed as hydrolysis rate using Gly-pro-p-nitroanilide as substrate measured after 20 mins incubation by […] assay
[2] = Acute toxicity in Balb/C mouse assessed as changes in general appearance at 1250 to 2000 mg/kg, po; assay type: organism-based; conditions: in vivo, dose 1250-2000 mg/kg
[3] = Acute toxicity in Balb/C mouse assessed as morphological changes in fur at 1250 to 2000 mg/kg, po; assay type: organism-based; conditions: in vivo, dose 1250-2000 mg/kg
Dipeptidyl peptidase 4 = Dipeptidyl peptidase 4 (Homo sapiens, UniProt P27487); experiment: Inhibition of DPP4 (unknown origin) assessed as hydrolysis rate using Gly-pro-p-nitroanilide as substrate measured after 20 mins incubation by fluorometric assay
Rattus norvegicus [4] = experiment: Reduction of alkaline phosphatase (ALP) level in STZ-induced type 2 diabetes male Wistar albino rat model at 10 mg/kg, po measured after 4 weeks by hepatic function test; assay type: functional, organism-based
[5] = Acute toxicity in Balb/C mouse assessed as morphological changes in diarrhea at 1250 to 2000 mg/kg, po; assay type: organism-based; conditions: in vivo, dose 1250-2000 mg/kg
Rattus norvegicus [6] = experiment: Reduction of insulin level in STZ-induced type 2 diabetes male Wistar albino rat model at 20 mg/kg, po measured after 4 weeks by hepatic function test; assay type: functional, organism-based
Rattus norvegicus [7] = experiment: Anti-diabetic activity in normal Wistar rat model assessed as blood glucose level at 10 mg/kg, po followed by treated administered 3 mg/kg orally measured after 30 mins by Oral glucose tolerance test (reference value: […] 176.14 + /- 4.04 mg/dL); assay type: functional; conditions: 0.5 h

Chain of Dipeptidyl peptidase 9 (Q86TI2 whole entry): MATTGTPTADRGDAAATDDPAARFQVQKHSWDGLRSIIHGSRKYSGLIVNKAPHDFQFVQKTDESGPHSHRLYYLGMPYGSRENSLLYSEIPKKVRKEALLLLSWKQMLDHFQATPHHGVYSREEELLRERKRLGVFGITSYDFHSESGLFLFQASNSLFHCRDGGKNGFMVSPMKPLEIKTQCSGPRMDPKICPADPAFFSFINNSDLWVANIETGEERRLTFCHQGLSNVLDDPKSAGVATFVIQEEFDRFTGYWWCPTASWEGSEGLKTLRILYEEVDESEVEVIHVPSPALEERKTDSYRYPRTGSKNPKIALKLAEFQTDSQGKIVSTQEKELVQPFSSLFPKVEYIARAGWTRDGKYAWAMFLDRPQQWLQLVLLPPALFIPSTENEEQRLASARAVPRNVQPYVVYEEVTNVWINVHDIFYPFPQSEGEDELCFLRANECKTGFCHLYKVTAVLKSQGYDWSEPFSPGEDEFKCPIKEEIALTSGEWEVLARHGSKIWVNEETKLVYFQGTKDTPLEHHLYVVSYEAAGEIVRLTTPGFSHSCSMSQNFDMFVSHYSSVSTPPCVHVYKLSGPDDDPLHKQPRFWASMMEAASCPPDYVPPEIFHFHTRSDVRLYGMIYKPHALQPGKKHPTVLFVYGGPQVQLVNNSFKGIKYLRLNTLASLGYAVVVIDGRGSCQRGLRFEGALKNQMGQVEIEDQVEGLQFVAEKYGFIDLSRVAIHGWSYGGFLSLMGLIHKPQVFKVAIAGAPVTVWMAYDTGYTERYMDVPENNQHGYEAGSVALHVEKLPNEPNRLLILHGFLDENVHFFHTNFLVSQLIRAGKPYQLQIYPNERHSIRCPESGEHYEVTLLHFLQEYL
Chain of Dipeptidyl peptidase 8 (Q6V1X1 whole entry): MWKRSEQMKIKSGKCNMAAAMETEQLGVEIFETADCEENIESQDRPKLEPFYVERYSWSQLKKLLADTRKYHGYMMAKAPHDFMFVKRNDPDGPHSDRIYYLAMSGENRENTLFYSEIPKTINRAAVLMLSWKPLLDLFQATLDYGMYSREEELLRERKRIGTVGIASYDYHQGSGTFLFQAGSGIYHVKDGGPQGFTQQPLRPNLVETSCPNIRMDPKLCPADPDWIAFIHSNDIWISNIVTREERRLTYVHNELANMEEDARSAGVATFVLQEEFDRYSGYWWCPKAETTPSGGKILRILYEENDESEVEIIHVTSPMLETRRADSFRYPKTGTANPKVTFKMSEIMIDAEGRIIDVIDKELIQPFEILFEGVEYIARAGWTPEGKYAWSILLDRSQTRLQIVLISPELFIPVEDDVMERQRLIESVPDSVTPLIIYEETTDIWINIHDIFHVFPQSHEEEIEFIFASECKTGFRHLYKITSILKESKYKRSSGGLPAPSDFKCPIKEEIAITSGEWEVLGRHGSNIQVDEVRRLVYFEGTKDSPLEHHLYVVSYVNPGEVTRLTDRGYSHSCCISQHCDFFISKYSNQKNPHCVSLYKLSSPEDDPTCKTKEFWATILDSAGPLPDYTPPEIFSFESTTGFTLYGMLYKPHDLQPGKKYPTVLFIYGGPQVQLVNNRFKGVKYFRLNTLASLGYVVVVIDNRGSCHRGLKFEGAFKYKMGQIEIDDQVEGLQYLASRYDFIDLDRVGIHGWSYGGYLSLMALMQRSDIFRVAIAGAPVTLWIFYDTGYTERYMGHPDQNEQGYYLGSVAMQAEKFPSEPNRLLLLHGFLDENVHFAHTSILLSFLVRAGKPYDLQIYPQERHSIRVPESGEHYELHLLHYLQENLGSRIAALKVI
Chain of Dipeptidyl peptidase 4 (P27487 whole entry): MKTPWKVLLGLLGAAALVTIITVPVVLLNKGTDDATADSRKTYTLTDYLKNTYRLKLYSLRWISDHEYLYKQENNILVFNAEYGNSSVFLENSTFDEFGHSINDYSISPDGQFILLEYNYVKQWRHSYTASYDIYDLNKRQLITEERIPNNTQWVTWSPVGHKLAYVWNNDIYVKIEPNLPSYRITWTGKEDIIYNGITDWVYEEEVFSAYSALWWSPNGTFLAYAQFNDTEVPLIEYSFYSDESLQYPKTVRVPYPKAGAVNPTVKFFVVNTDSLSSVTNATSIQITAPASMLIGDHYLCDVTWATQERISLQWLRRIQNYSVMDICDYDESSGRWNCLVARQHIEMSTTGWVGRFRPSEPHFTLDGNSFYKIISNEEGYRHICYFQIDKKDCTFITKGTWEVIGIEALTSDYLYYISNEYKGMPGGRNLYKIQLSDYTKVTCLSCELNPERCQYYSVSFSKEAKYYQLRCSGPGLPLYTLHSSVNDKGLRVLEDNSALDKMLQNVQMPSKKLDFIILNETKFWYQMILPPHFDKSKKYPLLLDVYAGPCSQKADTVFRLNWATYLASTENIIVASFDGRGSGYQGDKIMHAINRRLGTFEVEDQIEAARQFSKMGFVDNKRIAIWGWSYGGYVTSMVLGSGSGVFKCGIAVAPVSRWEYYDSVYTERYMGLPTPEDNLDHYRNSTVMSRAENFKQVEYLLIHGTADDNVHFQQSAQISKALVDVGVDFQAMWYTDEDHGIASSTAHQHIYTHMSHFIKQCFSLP

## CC1=C([N+](=O)[O-])C(c2ccc(F)c(F)c2)N=C(N)N1C(=O)CN1Cc2cn(S(C)(=O)=O)nc2C1 (stereo not given)
Dipeptidyl peptidase 9
  IC50: 864 nM
Rattus norvegicus [1]
  Activity: 115.78 mg/dL
Dipeptidyl peptidase 8
  IC50: 2900 nM
[2]
  Activity: Non-Toxic
[3]
  Activity: Non-Toxic
Dipeptidyl peptidase 4
  IC50: 55 nM
Rattus norvegicus [4]
  Activity: Active
[5]
  Activity: Non-Toxic
Rattus norvegicus [6]
  Activity: Active
Rattus norvegicus [7]
  Activity: 123.04 mg/dL
